Reference: article PMC12469831, “The Odorant-Binding Proteins AspiOBP1 and AspiOBP2 in Aleurocanthus spiniferus Are Involved in the Perception of Host Volatiles” (International Journal of Molecular Sciences, 2025)
Structures can show the parent of a compound that is named as a salt.

Target: T1, AspiOBP2
T1 construct: signal peptide removed; pET-30a(+) BamHI/EcoRI, E. coli BL21; His-tag kept; about 27 kDa predicted; clone primers encode mature start ETSTVDS and C-terminus PPPKP
Test: fluorescent probe titration, Scatchard
Type: binding, Aleurocanthus spiniferus
Conditions: 50 mmol/L Tris-HCl pH 7.4, 2 µmol/L protein, excitation 295 nm, His-tag kept

SMILES: O=S(=O)(O)c1cccc2c(-c3ccc(Nc4ccccc4)c4c(S(=O)(=O)O)cccc34)ccc(Nc3ccccc3)c12 [bis-ANS, 4,4′-Dianilino-1,1′-binaphthyl-5,5′-disulfonic acid, dipotassium salt]
- Kd: 2.26 ± 0.47 µM
